Source: patent US20120156150A1, “Composition for Improving Skin Condition Comprising Extract from Black Tea as Active Ingredient” (Keimyung University Industry Academic Cooperation Foundation, priority 2010, published 2012)
Marks after values point to notes of the source that are not given here.

Tests used:
[1] = Electron donating ability (DPPH radical scavenging, Blois' method)
Experimental: DPPH radical scavenging effect was measuring according to the Blois' method (1958). […] After adding 1 mL of the test sample in a test tube, 4×10^−4 M DPPH (4 mL) was added. The resulting mixture was shaken vigorously, allowed to stand in warm water of 60° C. for 10 seconds, and absorbance was measured at 525 nm. BHT was used as the positive control group. Then, free radical scavenging activity of each solution was calculated as “% inhibition” according to the following equation: % inhibition=[1−(Asample/Ablank)]×100, wherein Ab1ank is the absorbance of the control group (excluding the test sample) and Asample is the absorbance of the test compound.

Melan-a cells [2] = experiment: MTT assay, viability of Melan-a cells; format: cell-based, mouse
Experimental: (§1) Melan-a cells were purchased from Dr. Dorothy Bennett (St. George's Hospital, UK). Immortalized Melan-a cells with high pigment content are derived from C57BL/6 mouse. The cells were cultured using Roswell Park Memorial Institute (RPMI)-1640 medium containing 10% fetal bovine serum (FBS), 1% penicillin/streptomycin (P/S) and 200 nM 12-O-tetradecanoylphorbol 13-acetate (TPA) in a 10% CO2 incubator at 37° C. for 72 hours.
Melan-a cells were seeded on a 96-well plate (0.5×10^4 cells/well) and cultured in a 10% CO2 incubator at 37° C. for 24 hours. After adding 200 μL of AT, KA, EGCG, GT, WT or BT diluted to various concentrations (3.125, 6.25, 12.5, 25 and 50 μg/mL) using RPMI-1640 medium to the wells, the cells were cultured in a 10% CO2 incubator at 37° C. for 48 hours. Then, the cells were cultured in a medium containing […] in a 10% CO2 incubator at 37° C. for 3 hours. Subsequently, after settling the cells by centrifuging the plate at 1,000 rpm for 10 minutes, the medium was removed. Then, 200 μL of DMSO was added and the cells were suspended for 15 minutes in a plate shaker. Absorbance was measured at 540 nm using an ELISA reader. Cell viability (%) was calculated according to the following equation: % cell viability=(Asample/Ablank)×100, wherein Ablank is the absorbance of the control group (excluding the test sample) and Asample is the absorbance of the test compound.

Melan-a cells [3] = experiment: Melanin analysis in Melan-a cells; format: cell-based, mouse; settings: 12.5 μg/mL, compared with the control group
Experimental: as §1
Melan-a cells were seeded on a 96-well plate (2×10^4 cells/well) and cultured in a 10% CO2 incubator at 37° C. for 24 hours. Then, after adding 200 μL of AT, KA, EGCG, GT, WT or BT diluted to various concentrations (1.563, 3.125, 6.25 and 12.5 μg/mL) using RPMI-1640 medium to the wells, the cells were cultured in a 10% CO2 incubator at 37° C. for 72 hours, and then washed. This procedure was repeated several times. After dissolving Melanin with 1N NaOH, absorbance was measured at 490 nm using an ELISA reader. Melanin content (%) was calculated according to the following equation: % melanin content=(Asample/Ablank)×100, wherein Ablank is the absorbance of the control group (excluding the test sample) and Asample is the absorbance of the test compound.

tyrosinase [4] = target: T1, tyrosinase (Mus musculus, UniProt P11344); experiment: Intracellular tyrosinase activity of Melan-a cells; format: biochemical; settings: 12.5 μg/mL, compared with the control group
T1 construct: endogenous in cells; host or cells: Melan-a cells
T1 sequence (P11344 19-533): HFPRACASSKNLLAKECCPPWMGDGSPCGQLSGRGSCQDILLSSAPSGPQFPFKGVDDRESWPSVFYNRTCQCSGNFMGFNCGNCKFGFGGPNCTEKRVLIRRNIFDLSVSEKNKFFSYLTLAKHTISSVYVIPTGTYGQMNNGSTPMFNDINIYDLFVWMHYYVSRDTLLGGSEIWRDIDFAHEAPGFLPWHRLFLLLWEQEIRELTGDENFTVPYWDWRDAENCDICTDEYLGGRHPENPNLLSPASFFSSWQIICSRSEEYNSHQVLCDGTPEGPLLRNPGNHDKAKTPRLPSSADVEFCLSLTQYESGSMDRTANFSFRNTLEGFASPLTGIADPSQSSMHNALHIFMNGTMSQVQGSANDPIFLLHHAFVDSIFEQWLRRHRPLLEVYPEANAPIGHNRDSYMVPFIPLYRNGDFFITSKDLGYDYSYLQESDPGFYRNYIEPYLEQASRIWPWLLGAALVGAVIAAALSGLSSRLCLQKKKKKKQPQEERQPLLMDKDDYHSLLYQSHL
Experimental: (§2) Melan-a cells were seeded on a 60 φ cell culture dish (4×10^5 cells/well) and cultured in a 10% CO2 incubator at 37° C. for 24 hours. After washing with PBS, the cells were suspended by adding 200 μL of 1% triton X-100 to the culture dish, transferred to an e-tube, and fixed on ice. 60 minutes later, after shaking for 2-3 seconds, the cells were centrifuged at 4° C. and 14,000 rpm for 20 minutes to obtain 50 μL of protein, which was mixed with 49 μL of 0.1 M phosphate buffer (pH 6.8) and 1 μL of AT, EGCG, GT, WT or BT (1.563, 3.125, 6.25 or 12.5 μg/mL). After allowing the mixture to stand for 1 hour and adding 100 μL of L-DOPA, the mixture was incubated in a 10% CO2 incubator at 37° C. for 1 hour. Absorbance was measured at 490 nm using an ELISA reader. Tyrosinase activity was calculated according to the following equation: % inhibition=[1−(Asample/Ablank)]×100, wherein Ablank is the absorbance of the control group (excluding the test sample) and Asampie is the absorbance of the test compound.

tyrosinase [5] = target: T1, tyrosinase; experiment: Cell-extracted tyrosinase activity of Melan-a cells; format: biochemical; settings: 12.5 μg/mL, compared with the control group
Experimental: as §2, with “72” for “24”, “Asample” for “Asampie”

tyrosinase [6] = experiment: Western blotting, expression of tyrosinase protein in Melan-a cells; format: cell-based, mouse
Experimental: Protein concentration in the cell lysate was measured using the Pierce protein assay kit (Pierce Biotechnology, Inc., Rockford, USA), using BSA as standard. After adding same quantity of protein ([…]) on each lane, the proteins were separated by electrophoresis on 10% polyacrylamide gel. After transblotting onto nitrocellulose membrane, the membrane was incubated with PEP7 (1:10000 dilution, anti-tyrosinase antibody), PEP1 (1:10000 dilution, anti-TRP1 antibody) and PEP8 (1:10000 dilution, anti-TRP2 antibody). Then, the membrane was incubated with horseradish peroxidase-conjugated anti-rabbit IgG (1:1000 dilution; Amersham, Bucks, UK). Immunoreactive bands were detected by chemiluminescence using the ECL western blotting detector (Amersham, Bucks, UK). Band intensity was measured using the ImageJ program (NIH, Bethesda, USA). β-actin was used as internal control group for the immunoblotting.

[7] = system: UVB-induced hyperpigmentation; experiment: Melanin index (mexameter), brown guinea pig; format: in vivo; settings: 2% sample topical
Experimental: Three brown guinea pigs weighing 450-550 g were purchased from Oriental Yeast Co. Ltd. (OYC; Japan). The animals were accustomed to the test environment for 7 days. The animals were housed in individual cages under the environment of 22±1° C. and 50±5% relative humidity with 12-hour alternate dark/light cycles. Feed and water were given ad libitum.
UVB-induced hyperpigmentation was elicited on the back of the brown guinea pig according to the method of Choi et al. (2004). After anesthetizing the guinea pig with ketamine hydrochloride (100 mg/kg BW), 24 separate areas (φ 12 mm) on the skin of the back was exposed to UVB radiation (302-nm sunlamp). The areas were exposed to UVB of 500 mJ/cm^2 for 3 consecutive weeks, once a week. That is, a total of 1,500 mJ/cm^2 of UVB was radiated.
On day 10 after the final UVB radiation, 30 μL (1.06 mg/cm^2/day) of 2% HQ, EGCG, GT, WT or BT was topically applied for 4 weeks to the hyperpigmented areas (9 areas per each) using a micropipette, twice a day, and 4 days a week. Saline was used as control, and propylene glycol:ethanol:water (5:3:2) was used as vehicle control.
Before and after the topical application of the test sample, change in melanin pigmentation was measured 3 times in a non-invasive manner using a mexameter, once a week. The degree of pigmentation was analyzed by averaging the measured values.

[8] = system: melanin pigmentation in the epithelium; experiment: Fontana-Masson's silver staining, melanin-pigmented area; format: in vivo, brown guinea pig; settings: week 4; 2% sample
Experimental: In order to observe the morphological change of the skin tissue using an optical microscope, the extracted skin tissue was fixed in a 10% neutral formalin solution for 12 hours and washed with flowing water. After dehydrating in 70, 80, 95 and 100% ethanol followed by washing with xylene, the tissue was embedded in paraffin and 4 μm-thick samples were prepared using a microtome.
Paraffin was removed from the sample using xylene. After staining the sample for 60 minutes in silver nitrate solution at 56° C. according to the Masson's method (1928), followed by washing, color-toning 0.2% gold chloride solution and washing again, the sample was kept in 5% sodium thiosulfate solution for 5 minutes. Subsequently, after washing the sample once again, followed by counterstaining in nuclear fast red solution, dehydration in 95%, 95%, 100% and 100% alcohol and washing with xylene, the sample was put in Canada balsam for microscopic observation. The percentage of the melanin-pigmented area was calculated using an image analysis software.

S-100 protein = experiment: Immunohistochemical S-100 staining; format: in vivo, brown guinea pig; settings: week 4; 2% sample
Experimental: (§3) After dehydration, followed by washing with xylene and embedding in paraffin, 4 μm-thick samples were prepared. The sample was adhered on a coating slide and stained using the BenchMark XT automated immunostainer (Ventana Medical Systems, USA) after removing paraffin. […] Following reaction with S-100 and HMB-45 primary antibodies diluted to 1:100, the sample was washed with reaction buffer, reacted with biotin for 20 minutes, and then reacted with streptavidin for 25 minutes. After coloring with diaminobenzidine (DAB) using the Ventana detection kit), the sample was stained for observation using an optical microscope.

gp100 protein = experiment: Immunohistochemical HMB-45 staining (gp100); format: in vivo, brown guinea pig; settings: week 4; 2% sample
Experimental: as §3

OC[C@H]1O[C@@H](Oc2ccc(O)cc2)[C@H](O)[C@@H](O)[C@@H]1O [AT, arbutin]
Electron donating ability ([1]; 800 μg/mL): 44% | maximum permissible level (MPL) (Melan-a cells [2]; mouse, 48 h): exceeds 50 μg/mL | melanin content decreased by (Melan-a cells [3]): 18% | intracellular tyrosinase activity decreased by (tyrosinase [4]): 12% | tyrosinase activity in cell extract (decreased) by (tyrosinase [5]): 13% | expression of tyrosinase protein (tyrosinase [6]): no significant decrease

Cc1cc(C(C)(C)C)c(O)c(C(C)(C)C)c1 [BHT, 2,6-di-tert-butyl-4-methylphenol]
Electron donating ability ([1]; 800 μg/mL): 89% | Electron donating ability ([1]; 1,000 μg/mL): 55%

O=C(O[C@@H]1Cc2c(O)cc(O)cc2O[C@@H]1c1cc(O)c(O)c(O)c1)c1cc(O)c(O)c(O)c1 [EGCG, epigallocatechin gallate]
Electron donating ability ([1]; 800 μg/mL): 94% | maximum permissible level (MPL) (Melan-a cells [2]; Melan-a cells): 12.5 µg/mL | melanin content decreased by (Melan-a cells [3]): 29% | intracellular tyrosinase activity decreased by (tyrosinase [4]): 61% | tyrosinase activity in cell extract (decreased) by (tyrosinase [5]): 18% | melanin index ([7]; week 0): 723.5 ± 11.3^a AU | melanin index ([7]; week 1): 704.1 ± 12.5^a* AU | melanin index ([7]; week 2): 675.9 ± 12.4^c AU | melanin index ([7]; week 3): 636.6 ± 12.2^b AU | melanin index ([7]; week 4): 582.9 ± 12.8^b AU | melanin index decreased by, as compared to the group C ([7]; week 4): 17% | % of melanin pigment [8]: 10.5 ± 2.0^c % | Melanin pigment area [8]: 1174 ± 189 μm^2 | melanin pigmented area decreased by, as compared to the control group [8]: 48% | % of S-100 Protein (S-100 protein): 5.3 ± 0.7^bc % | S-100 Protein area (S-100 protein): 611 ± 81 μm^2 | area of S-100 protein expression, decrease by, as compared to the control groups (S-100 protein): 62% | % of Melanin pigment (Table 5, gp 100 protein) (gp100 protein): 5.3 ± 0.8^c % | Melanin pigment (area; Table 5, gp 100 protein) (gp100 protein): 600 ± 107 μm^2 | area of gp 100 protein expression, decrease by, as compared to the group C (gp100 protein): 61%

O=c1cc(CO)occ1O [KA, kojic acid]
Electron donating ability ([1]; 800 μg/mL): 19% | maximum permissible level (MPL) (Melan-a cells [2]; mouse, 48 h): exceeds 50 μg/mL | melanin content decreased by (Melan-a cells [3]): 7%
